Results published in patent US20210137828A1, “Cannabidiol Sublingual Spray Formulations” (priority 2019, published 2021).

Tests used:
[1] = 700 milligrams per day for 6 weeks; cited from earlier work
anxiety = conditions: patients with social anxiety disorder; cited from earlier work
[2] = tested on: chronic inflammatory and neuropathic pain; conditions: rodents; cited from earlier work
seizures = conditions: doses up to 25 milligrams per kilogram of body weight; cited from earlier work
seizure frequency = conditions: cited from earlier work
toxin-induced vomiting = conditions: low doses; cited from earlier work
[3] = tested on: human experimental psychosis; conditions: cited from earlier work
incidence of diabetes = conditions: non-obese diabetic mice, cited from earlier work
breast tumor cell lines = conditions: different breast tumor cell lines; cited from earlier work
non-cancer cells = conditions: compared with breast tumor cell lines; cited from earlier work
[4] = Impurity stability of CBD sublingual spray formulation; assay type: physicochemical; parameters: unit not given here
Method: Stability data was established for formulations with 25 mg/spray, 0.2% sucralose, 0.4% strawberry flavor, and 10% ethanol in the presence of MCT oil. […] This can be extrapolated to assigning a one year expiration at room temperature for lipid based formulation. See Table 1 through 2 for stability data of impurities and assay.

[5] = tested on: non-tumorigenic, mammary cells; conditions: at concentrations effective in tumor cells; cited from earlier work
[6] = tested on: estrogen receptor-positive and estrogen receptor-negative breast cancer cells; conditions: cited from earlier work
[7] = tested on: vascular damage, vascular hyperpermeability; conditions: high glucose environment, inflammation or induction of type 2 diabetes in animal models; cited from earlier work

C=C(C)[C@@H]1CCC(C)=C[C@H]1c1c(O)cc(CCCCC)cc1O [CBD, cannabidiol]
Overt toxicity in humans [1]: did not show any overt toxicity | Effect on anxiety (anxiety): reduce anxiety | Analgesic tolerance [2]: without causing analgesic tolerance | Suppression of chronic inflammatory and neuropathic pain [2]: significantly suppressed chronic inflammatory and neuropathic pain | Tolerability (seizures): generally well-tolerated | Parents reporting a reduction in their child's seizure frequency (seizure frequency; 16 of 19 parents): 84% | Parents reporting greater than 80 percent reduction in seizure frequency (seizure frequency; eight of 19 parents): 42% | Side effects (seizure frequency; parent survey, children with epilepsy): drowsiness and fatigue | Parents reporting 25-60 percent seizure reduction (seizure frequency; six of 19 parents): 32% | Parents reporting complete seizure freedom (seizure frequency; two of 19 parents): 11% | Effect on toxin-induced vomiting (toxin-induced vomiting): suppresses toxin-induced vomiting | Effect on human experimental psychosis [3]: prevents human experimental psychosis | Incidence of diabetes (incidence of diabetes; 86 percent in non-treated mice): 30% | Insulitis, histological examination of pancreatic islets (incidence of diabetes): significantly reduced insulitis | Plasma levels of pro-inflammatory cytokines (incidence of diabetes): significant reduction | Inhibition of growth of breast tumor cell lines (breast tumor cell lines): potently and selectively inhibited the growth | Potency in non-cancer cells (non-cancer cells): significantly less potency in non-cancer cells | CBD peak (RRT 1.00) in impurity stability data ([4]; T = 0): 99.24 | CBD peak (RRT 1.00) in impurity stability data ([4]; T = 2wk 25 C.): 99.05 | CBD peak (RRT 1.00) in impurity stability data ([4]; T = 2wk 40 C.): 98.60 | CBD peak (RRT 1.00) in impurity stability data ([4]; T = 4wk 25 C.): 98.75 | CBD peak (RRT 1.00) in impurity stability data ([4]; T = 4wk 40 C.): 97.96 | Effect on non-tumorigenic mammary cells [5]: little effect | Cell death of breast cancer cells [6]: induced a concentration-dependent cell death | Protection against vascular damage [7]: protects against the vascular damage
